Test results reported in the supplement of paper PMC4862054.

Key:
Test in all cases: normalised viability (% of control), CellTiter-Blue; higher = more viable cells (about 100 = DMSO control)
Conditions in all cases: incubation time: 72 h
[1] = tested on: MDA-MB-453
Experimental: (§1)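 DSRT, CellTiter-Blue viability, 72 h incubation. Signal is normalised to DMSO and benzethonium chloride controls. Value is the normalised response at dose 7.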

[2] = tested on: CAL-85-1
Experimental: as §1

[3] = tested on: CAL-51
Experimental: as §1

[4] = tested on: HDQ-P1
Experimental: as §1

[5] = tested on: CAL-148
Experimental: as §1

[6] = tested on: DU-4475
Experimental: as §1

[7] = tested on: MDA-MB-453; remark: listed apart in the source
Experimental: (§2)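 DSRT, CellTiter-Blue viability, 72 h incubation. Signal is normalised to DMSO and benzethonium chloride controls. Value is the normalised response at dose 6.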

[8] = tested on: CAL-85-1; remark: listed apart in the source
Experimental: as §2

[9] = tested on: CAL-51; remark: listed apart in the source
Experimental: as §2

[10] = tested on: HDQ-P1; remark: listed apart in the source
Experimental: as §2

[11] = tested on: CAL-148; remark: listed apart in the source
Experimental: as §2

[12] = tested on: DU-4475; remark: listed apart in the source
Experimental: as §2

[13] = tested on: MDA-MB-453; remark: listed apart in the source
Experimental: (§3)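 DSRT, CellTiter-Blue viability, 72 h incubation. Signal is normalised to DMSO and benzethonium chloride controls. Value is the normalised response at dose 8.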

[14] = tested on: CAL-85-1; remark: listed apart in the source
Experimental: as §3

[15] = tested on: CAL-51; remark: listed apart in the source
Experimental: as §3

[16] = tested on: HDQ-P1; remark: listed apart in the source
Experimental: as §3

[17] = tested on: CAL-148; remark: listed apart in the source
Experimental: as §3

[18] = tested on: DU-4475; remark: listed apart in the source
Experimental: as §3

Q: For `c1cc(CN2CCCNCCNCCCNCC2)ccc1CN1CCCNCCNCCCNCC1` [Plerixafor] (250 nM), which normalised viability [1] is on record?
A: The normalised viability was 104%.

Q: What about the normalised viability [2] of the same compound?
A: The normalised viability was 94.3%.

Q: And the normalised viability [3]?
A: The normalised viability was 105%.

Q: What about the normalised viability [4] of the same compound?
A: Its normalised viability is 121%.

Q: What about the normalised viability [5] of the same compound?
A: Its normalised viability is 84.4%.

Q: And the normalised viability [6]?
A: Its normalised viability is 97.2%.

Q: Which results are given for `c1cc(CN2CCCNCCNCCCNCC2)ccc1CN1CCCNCCNCCCNCC1` [Plerixafor] (75 nM)?
A: normalised viability [7]: 93.3%; normalised viability [8]: 95%; normalised viability [9]: 103%; normalised viability [10]: 84%; normalised viability [11]: 85.9%; normalised viability [12]: 101%

Q: With `CS(=O)(=O)N1CCN(Cc2cc3nc(-c4cccc5[nH]ncc45)nc(N4CCOCC4)c3s2)CC1` [GDC-0941] (1000 nM) as the compound, how does the normalised viability [1] read?
A: The normalised viability was 12%.

Q: What about the normalised viability [2] of the same compound?
A: The normalised viability was 58.4%.

Q: What about the normalised viability [3] of the same compound?
A: The normalised viability was 39.5%.

Q: What about the normalised viability [4] of the same compound?
A: Its normalised viability is 25%.

Q: And the normalised viability [5]?
A: The normalised viability was 54%.

Q: What about the normalised viability [6] of the same compound?
A: The normalised viability was 105%.

Q: For `O=C(NC[C@H](O)CO)c1ccncc1Nc1ccc(I)cc1F` (1000 nM), which normalised viability [1] is on record?
A: The normalised viability was 77.4%.

Q: And the normalised viability [2]?
A: Its normalised viability is 65.3%.

Q: And the normalised viability [3]?
A: Its normalised viability is 78.2%.

Q: And the normalised viability [4]?
A: Its normalised viability is 58.5%.

Q: And the normalised viability [5]?
A: The normalised viability was 77.3%.

Q: And the normalised viability [6]?
A: Its normalised viability is 0.41%.

Q: How did the normalised viability [1] turn out when `Cn1cc(CNCC2CCN(c3ncc(C(=O)NO)cn3)CC2)c2ccccc21` (100 nM) was run?
A: The normalised viability was 2.32%.

Q: And the normalised viability [2]?
A: The normalised viability was 16.6%.

Q: What about the normalised viability [3] of the same compound?
A: Its normalised viability is 36.7%.

Q: And the normalised viability [4]?
A: Its normalised viability is 33.5%.

Q: What about the normalised viability [5] of the same compound?
A: The normalised viability was 3.75%.

Q: What about the normalised viability [6] of the same compound?
A: The normalised viability was 12.3%.

Q: `C[C@]12C=CC(=O)C=C1CC[C@@H]1[C@@H]2[C@@H](O)C[C@@]2(C)[C@H]1CC[C@]2(O)C(=O)CO` [Prednisolone] (3000 nM) was tested. Which normalised viability [13] did it give?
A: The normalised viability was 75.4%.

Q: What about the normalised viability [14] of the same compound?
A: Its normalised viability is 117%.

Q: What about the normalised viability [15] of the same compound?
A: The normalised viability was 102%.

Q: What about the normalised viability [16] of the same compound?
A: Its normalised viability is 121%.

Q: And the normalised viability [17]?
A: Its normalised viability is 96%.

Q: What about the normalised viability [18] of the same compound?
A: The normalised viability was 106%.

Q: What does the source list for `CS(=O)(=O)N1CCN(Cc2cc3nc(-c4cccc5[nH]ncc45)nc(N4CCOCC4)c3s2)CC1` [GDC-0941] (3000 nM)?
A: normalised viability [13]: 10.6%; normalised viability [14]: 31.9%; normalised viability [15]: 14.3%; normalised viability [16]: 14.5%; normalised viability [17]: 18.6%; normalised viability [18]: 104%

Q: Which results are given for `Cc1c(CN2CCN(C(=O)[C@H](C)O)CC2)sc2c(N3CCOCC3)nc(-c3cnc(N)nc3)nc12` [GDC-0980] (3000 nM)?
A: normalised viability [13]: 6.67%; normalised viability [14]: 16.9%; normalised viability [15]: 7.42%; normalised viability [16]: 14.2%; normalised viability [17]: 5.28%; normalised viability [18]: 19.4%

Q: With `O=C(NC[C@H](O)CO)c1ccncc1Nc1ccc(I)cc1F` (300 nM) as the compound, how does the normalised viability [7] read?
A: The normalised viability was 98%.

Q: What about the normalised viability [8] of the same compound?
A: Its normalised viability is 77.3%.

Q: And the normalised viability [9]?
A: The normalised viability was 85.9%.

Q: What about the normalised viability [10] of the same compound?
A: The normalised viability was 57.6%.

Q: What about the normalised viability [11] of the same compound?
A: The normalised viability was 82.7%.

Q: And the normalised viability [12]?
A: Its normalised viability is 0.69%.
